The source of these data is patent US7459450B2, “Neuropeptide receptor modulators” (Schering Corporation, priority 2004, dated 2008).

One experiment deals with T1, Human NPY Y1 receptors (Homo sapiens, UniProt P25929).
T1 construct: expressed in transfected cells; host or cells: CHO cells (membrane protein)
T1 sequence (P25929 1-384): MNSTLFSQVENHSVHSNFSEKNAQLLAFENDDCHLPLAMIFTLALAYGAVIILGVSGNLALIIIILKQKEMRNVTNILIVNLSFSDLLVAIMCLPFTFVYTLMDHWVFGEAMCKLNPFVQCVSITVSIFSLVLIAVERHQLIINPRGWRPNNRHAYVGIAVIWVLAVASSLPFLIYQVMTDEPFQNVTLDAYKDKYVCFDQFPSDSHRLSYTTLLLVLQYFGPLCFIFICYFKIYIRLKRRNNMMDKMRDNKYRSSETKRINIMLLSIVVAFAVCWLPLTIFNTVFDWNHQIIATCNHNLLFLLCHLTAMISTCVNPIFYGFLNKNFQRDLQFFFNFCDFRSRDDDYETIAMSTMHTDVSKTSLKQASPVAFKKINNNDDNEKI
The experiment can be described thus: NPY Receptor Binding Assay.
Settings: not given
As for the experimental part: NPY Receptor Binding Assay
Human NPY Y1 receptors were expressed in CHO cells. Binding assays were performed in 50 mM HEPES, pH 7.2, 2.5 mM CaCl2, 1 mM MgCl2 and 0.1% BSA containing 5-10 μg of membrane protein and 0.1 nM […] in a total volume of 200 μl. Non-specific binding was determined in the presence of 1 μM NPY. The reaction mixtures were incubated for 90 minutes at room temperature then filtered through Millipore MAFC glass fiber filter plates which had been pre-soaked in 0.5% polyethleneimine. The filters were washed with phosphate-buffered saline, and radioactivity was measured in a Packard TopCount scintillation counter.
Take `CSCC[C@@H]1N/C(=N/c2ccc(CCNc3nc4cc(Cl)c(Cl)cc4s3)cc2)SC1=O` [Example 361]: the inhibitory constant (Ki) is > 10 µM.
Same read-out and setting: the result for `Cc1ccc2nc(NCCc3ccc(/N=C4/N[C@@H](C)C(=O)S4)cc3)sc2c1` [Example 381] reads > 10 µM.
With `O=C1S/C(=N/c2ccccc2CCNc2nc3ccccc3s2)N2CCC[C@@H]12` [Example 405], the Ki is > 10 µM.
On the same count and under the same terms, the result for `O=C1S/C(=N\c2ccc(CCNc3nc4ccc(F)cc4s3)cc2)N[C@H]1Cc1ccccc1` [Example 373] reads > 10 µM; that for `CC(C)[C@@H]1N/C(=N/c2ccc(CCNc3nc4ccccc4s3)cc2)SC1=O` [Example 397], > 10 µM.
On to `C[C@@H]1N/C(=N/c2ccc(CCNc3nc4ccc(S(C)(=O)=O)cc4s3)cc2)SC1=O` [Example 354], for which the inhibition constant Ki was > 10 µM.
Still for that read-out and setting: the result for `CC(C)[C@@H]1N/C(=N/c2ccc(CCNc3nc4ccc(Cl)cc4s3)cc2)SC1=O` [Example 384] reads > 10 µM; that for `O=C1S/C(=N\c2ccc(CCNc3nc4ccccc4s3)cc2)N2CCC[C@@H]12` [Example 398], > 10 µM.

Staying with this experiment, now noted: Procedure A compounds, rated A/B/C.
Compound `Cc1ccc2nc(NCCc3ccc(NC4=NCCS4)cc3)sc2c1` [Example 17] displayed a Ki of 1 to 10 µM.
In turn, `COc1cccc2sc(NCCc3ccc(NC4=NCCS4)cc3)nc12` [Example 22] showed an inhibition constant (Ki) of 1 to 10 µM.

The same experiment, now with this note: Procedure B compounds, rated A/B/C.
`CCOC(=O)N1CC2CCCN2/C1=N\c1ccc(CCNc2nc3ccccc3s2)cc1` (stereo not shown) [Example 34]: the inhibitory constant (Ki) was > 10 µM.
In the case of `O=C(c1ccccc1)N1CC2CCCN2/C1=N\c1ccc(CCNc2nc3ccccc3s2)cc1` (stereo not shown) [Example 35], the inhibition constant (Ki) was > 10 µM.

Staying with this experiment, now noted: Procedure C compounds, rated A/B/C.
On to `CCOC(=O)N1C(=O)[C@H](CC(=O)O)N=C1Nc1ccc(CCNc2nc3ccccc3s2)cc1` [Example 38], for which the Ki was > 10 µM.

Still in this experiment, the particulars now being: Procedure E compounds, rated A/B/C.
Turning to `Cc1ccc2nc(NCCc3ccc(/N=C4/N[C@H](C)CS4)cc3)sc2c1` [Example 95], the Ki is < 1 µM.
Consider `CC1CN/C(=N/c2ccc(CCNc3nc4cc(Cl)c(Cl)cc4s3)cc2)S1` (stereo not shown) [Example 190], for which the Ki was > 10 µM.
Same read-out and setting: the result for `c1ccc(C2CN/C(=N\c3cccc(CCNc4nc5ccccc5s4)c3)S2)cc1` (stereo not shown) [Example 186] reads > 10 µM; that for `COc1cccc2sc(NCCc3ccc(/N=C4/NCCCS4)cc3)nc12` [Example 207], > 10 µM.
Still for that read-out and setting: the result for `C=C(C)CN1/C(=N/c2ccc(CCNc3nc4ccc(C)cc4s3)cc2)SC2Cc3ccccc3[C@@H]21` (stereo partly shown) [Example 225] reads > 10 µM; that for `c1cc(CCNc2nc3ccccc3s2)cc(/N=C2\NCCCS2)c1` [Example 69], > 10 µM; that for `CC[C@@H]1CS/C(=N\c2ccc(CCNc3nc4ccccc4s3)cc2)N1` [Example 269], < 1 µM.
As to `CC[C@@H]1CS/C(=N\c2ccc(CCNc3nc4ccc(Cl)cc4s3)cc2)N1` [Example 110], the inhibition constant (Ki) was < 1 µM.
Still for that read-out and setting: the result for `CC1CN/C(=N\c2cccc(CCNc3nc4ccccc4s3)c2)S1` (stereo not shown) [Example 187] reads > 10 µM.
Same read-out and setting: the result for `CCC1CS/C(=N\c2ccc(CCNc3nc4ccc(OC)cc4s3)cc2)N1` (stereo not shown) [Example 84] reads < 1 µM.

Staying with this experiment, now noted: Procedure G compounds, rated A/B/C.
For `Cc1ccc(-c2csc(Nc3ccc(CCNc4nc5ccccc5s4)cc3)n2)cc1` [Example 417], the Ki was > 10 µM.
Turning to `CC(=O)c1sc(Nc2ccc(CCNc3nc4ccccc4s3)cc2)nc1C` [Example 429], the inhibition constant Ki was > 10 µM.
Same read-out and setting: the result for `COc1ccc(-c2csc(Nc3ccc(CCNc4nc5ccccc5s4)cc3)n2)cc1` [Example 436] reads > 10 µM; that for `COc1ccccc1-c1csc(Nc2ccc(CCNc3nc4ccccc4s3)cc2)n1` [Example 425], > 10 µM.

Still in this experiment, the particulars now being: Procedure H compounds, rated A/B/C.
Turning to `O=C1N=C(Nc2ccc(CCNc3nc4ccccc4s3)cc2)SC1c1ccccc1O` (stereo not shown) [Example 445], the Ki was > 10 µM.
Same read-out and setting: the result for `CCCCC1SC(Nc2ccc(CCNc3nc4ccccc4s3)cc2)=NC1=O` (stereo not shown) [Example 442] reads > 10 µM.

The experiment is the same for the next values; noted with them: Table 1, rated A/B/C.
Regarding `c1ccc2sc(NCCc3ccc(NC4=NC(C5CCCCC5)CCS4)cc3)nc2c1` (stereo not shown) [Example 9], the inhibitory constant (Ki) was < 1 µM.
Same read-out and setting: the result for `c1ccc(C2CCCC(Nc3ccc(CCNc4nc5ccccc5s4)cc3)=N2)cc1` (stereo not shown) [Example 6] reads < 1 µM.

One may read the Ki as the equilibrium dissociation constant of an inhibitor or competing ligand from its target. High values mean lower affinity, low ones higher affinity.
